Our source for the EC50 values is patent US20240101556A1, “COMPOUNDS AND COMPOSITIONS FOR TREATING CONDITIONS ASSOCIATED WITH STING ACTIVITY” (IFM Due, Inc., priority 2021, published 2024).

pEC50: −log10 of the molar value.

The target of the assay is T1, hSTING (Homo sapiens, UniProt Q86WV6, G230A/H232R/R293Q/R71H).
T1 construct: host or cells: THP1-Dual KO-IFNAR2 cells (human monocytic line)
Put plainly: STING reporter assay (luciferase) in THP1-Dual KO-IFNAR2 cells stimulated with 2′3′cGAMP. It counts as cell-based. As to conditions: 2′3′cGAMP 15 μM with Lipofectamine 2000, 24 h, luciferase reporter activity, compounds 0.0017-100 μM. The protocol: STING pathway activation by the compounds described herein was measured using THP1-Dual™ cells (KO-IFNAR2).
THP1-Dual™ KO-IFNAR2 Cells (obtained from invivogen) were maintained in RPMI, 10% FCS, 5 ml P/S, 2 mM L-glut, 10 mM Hepes, and 1 mM sodium pyruvate. Compounds were spotted in empty 384 well tissue culture plates (Greiner 781182) by Echo for a final concentration of 0.0017-100 μM. Cells were plated into the TC plates at 40 μL per well, 2×10E6 cells/mL. For activation with STING ligand, 2′3′cGAMP (MW 718.38, obtained from Invivogen), was prepared in Optimem media.
The following solutions were prepared for each 1×384 plate: • Solution A: 2 mL Optimem with one of the following stimuli: • 60 μL of 10 mM 2′3′cGAMP→150 μM stock • Solution B: 2 mL Optimem with 60 μL Lipofectamine 2000→Incubate 5 min at RT
2 mL of solution A and 2 m1 Solution B was mixed and incubated for 20 min at room temperature (RT). 20 μL of transfection solution (A+B) was added on top of the plated cells, with a final 2′3′cGAMP concentration of 15 μM. The plates were then centrifuged immediately at 340 g for 1 minute, after which they were incubated at 37° C., 5% CO2, >98% humidity for 24 h. Luciferase reporter activity was then measured. EC50 values were calculated by using standard methods known in the art.
Luciferase reporter assay: 10 μL of supernatant from the assay was transferred to white 384-plate with flat bottom and squared wells. One pouch of QUANTI-Luc™ Plus was dissolved in 25 mL of water. 100 μL of QLC Stabilizer per 25 mL of QUANTI-Luc™ Plus solution was added. 50 μL of QUANTI-Luc™ Plus/QLC solution per well was then added. Luminescence was measured on a Platereader (e.g., Spectramax I3X (Molecular Devices GF3637001)).
Luciferase reporter activity was then measured. EC50 values were calculated by using standard methods known in the art.

T1 sequence (Q86WV6 whole entry R71H/G230A/H232R/R293Q): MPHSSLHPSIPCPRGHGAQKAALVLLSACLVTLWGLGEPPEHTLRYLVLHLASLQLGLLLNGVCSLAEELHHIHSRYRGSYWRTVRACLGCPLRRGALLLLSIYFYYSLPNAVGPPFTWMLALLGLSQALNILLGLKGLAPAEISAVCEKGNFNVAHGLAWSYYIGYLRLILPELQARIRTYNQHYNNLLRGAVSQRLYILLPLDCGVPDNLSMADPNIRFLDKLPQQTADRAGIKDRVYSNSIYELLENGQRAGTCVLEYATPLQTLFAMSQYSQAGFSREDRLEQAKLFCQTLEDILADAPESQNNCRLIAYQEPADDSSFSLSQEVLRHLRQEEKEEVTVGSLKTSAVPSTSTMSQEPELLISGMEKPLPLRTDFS

The compound `CC(CC(F)(F)F)N1CCN(c2ccc3[nH]cc(NC(=O)Nc4ccc(C(F)(F)F)cc4)c3n2)CC1` (stereo not shown) [Compound 114, 3-{5-[4-(4,4,4-trifluorobutan-2-yl)piperazin-1-yl]-1H-pyrrolo[3,2-b]pyridin-3-yl}-1-[4-(trifluoromethyl)phenyl]urea] had a pEC50 of 4.00 to 5.30. As to `CC(C)c1ccn(-c2ccc3[nH]cc(NC(=O)Nc4ccc(C(F)(F)F)cc4)c3n2)n1` [Compound 132, 1-(5-(3-isopropyl-1H-pyrazol-1-yl)-1H-pyrrolo[3,2-b]pyridin-3-yl)-3-(4-(trifluoromethyl)phenyl)urea], the pEC50 was 4.00 to 5.30.

In turn, `O=C(Nc1ccc(C(F)(F)F)cc1)Nc1c[nH]c2ccc(N3CCN(CC(F)(F)F)CC3)nc12` [Compound 118, 1-(5-(4-(2,2,2-trifluoroethyl)piperazin-1-yl)-1H-pyrrolo[3,2-b]pyridin-3-yl)-3-(4-(trifluoromethyl)phenyl)urea] had a pEC50 of 4.00 to 5.30. For `O=C(Nc1ccc(C(F)(F)F)cc1)Nc1c[nH]c2ccc(N3CCN(C4CCC(F)(F)CC4)CC3)nc12` [Compound 116, 3-{5-[4-(4,4-difluorocyclohexyl)piperazin-1-yl]-1H-pyrrolo[3,2-b]pyridin-3-yl}-1-[4-(trifluoromethyl)phenyl]urea] the value was 4.00 to 5.30; for `O=C(Nc1ccc(C(F)(F)F)cc1)Nc1c[nH]c2ccc(N3CCN(C4CCC(C(F)(F)F)CC4)CC3)nc12` (stereo not shown) [Compound 115, 3-(5-{4-[4-(trifluoromethyl)cyclohexyl]piperazin-1-yl}-1H-pyrrolo[3,2-b]pyridin-3-yl)-1-[4-(trifluoromethyl)phenyl]urea], 4.00 to 5.30. For `O=C(Nc1ccc(C(F)(F)F)cc1)Nc1c[nH]c2ccc(N3CCN(Cc4ccccn4)CC3)nc12` [Compound 120, 3-(5-{4-[(pyridin-2-yl)methyl]piperazin-1-yl}-1H-pyrrolo[3,2-b]pyridin-3-yl)-1-[4-(trifluoromethyl)phenyl]urea] the value was 4.00 to 5.30. `O=C(Nc1ccc(C(F)(F)F)cc1)Nc1c[nH]c2ccc(N3CCN(CCC(F)(F)F)CC3)nc12` [Compound 123, 1-[4-(trifluoromethyl)phenyl]-3-{5-[4-(3,3,3-trifluoropropyl)piperazin-1-yl]-1H-pyrrolo[3,2-b]pyridin-3-yl}urea]: the pEC50 was 4.00 to 5.30. The compound `CCN1CCN(c2ccc3[nH]cc(NC(=O)Nc4ccc(C(F)(F)F)c(Cl)c4)c3n2)CC1` [Compound 126, 1-(3-chloro-4-(trifluoromethyl)phenyl)-3-(5-(4-ethylpiperazin-1-yl)-1H-pyrrolo[3,2-b]pyridin-3-yl)urea] showed a pEC50 of 4.00 to 5.30. Then `CC(C)CN1CCN(c2ccc3[nH]cc(NC(=O)Nc4ccc(C(F)(F)F)cc4)c3n2)CC1` [Compound 124, 3-{5-[4-(2-methylpropyl)piperazin-1-yl]-1H-pyrrolo[3,2-b]pyridin-3-yl}-1-[4-(trifluoromethyl)phenyl]urea], with 4.00 to 5.30; and `CC(C)OC1CCC(N2CCN(c3ccc4[nH]cc(NC(=O)Nc5ccc(C(F)(F)F)cc5)c4n3)CC2)CC1` (stereo not shown) [Compound 113, 3-(5-{4-[4-(propan-2-yloxy)cyclohexyl]piperazin-1-yl}-1H-pyrrolo[3,2-b]pyridin-3-yl)-1-[4-(trifluoromethyl)phenyl]urea], with 4.00 to 5.30. Regarding `O=C(Nc1ccc(C(F)(F)F)cc1)Nc1c[nH]c2ccc(N3CCN(Cc4cccnc4)CC3)nc12` [Compound 119, 3-(5-{4-[(pyridin-3-yl)methyl]piperazin-1-yl}-1H-pyrrolo[3,2-b]pyridin-3-yl)-1-[4-(trifluoromethyl)phenyl]urea], the pEC50 was 5.30 to 6.00. `COCCN1CCN(c2ccc3[nH]cc(NC(=O)Nc4ccc(C(F)(F)F)cc4)c3n2)CC1` [Compound 122, 3-{5-[4-(2-methoxyethyl)piperazin-1-yl]-1H-pyrrolo[3,2-b]pyridin-3-yl}-1-[4-(trifluoromethyl)phenyl]urea]: the pEC50 is 4.00 to 5.30. For `O=C(Nc1ccc(C(F)(F)F)cc1)Nc1c[nH]c2ccc(N3CCN(CC4CC4)CC3)nc12` [Compound 117, 3-{5-[4-(cyclopropylmethyl)piperazin-1-yl]-1H-pyrrolo[3,2-b]pyridin-3-yl}-1-[4-(trifluoromethyl)phenyl]urea], the pEC50 is 4.00 to 5.30. Compound `CCN1CCN(c2ccc3[nH]cc(NC(=O)Nc4ccc(C(F)(F)F)cc4)c3n2)CC1` [Compound 127, 1-(5-(4-ethylpiperazin-1-yl)-1H-pyrrolo[3,2-b]pyridin-3-yl)-3-(4-(trifluoromethyl)phenyl)urea] showed a pEC50 of 4.00 to 5.30.

`CN1CCN(c2ccc3[nH]cc(NC(=O)Nc4ccc(C(F)(F)F)cc4)c3n2)CC1` [Compound 125, 1-(5-(4-methylpiperazin-1-yl)-1H-pyrrolo[3,2-b]pyridin-3-yl)-3-(4-(trifluoromethyl)phenyl)urea]: the pEC50 is 4.00 to 5.30.

Compound `CC(C)c1cnn(-c2ccc3[nH]cc(NC(=O)Nc4ccc(C(F)(F)F)cc4)c3n2)c1` [Compound 131, 1-(5-(4-isopropyl-1H-pyrazol-1-yl)-1H-pyrrolo[3,2-b]pyridin-3-yl)-3-(4-(trifluoromethyl)phenyl)urea] had a pEC50 of 4.00 to 5.30. Regarding `O=C(Nc1ccc(C(F)(F)F)cc1)Nc1c[nH]c2ccc(N3CCN(Cc4ccccc4)CC3)nc12` [Compound 121, 3-[5-(4-benzylpiperazin-1-yl)-1H-pyrrolo[3,2-b]pyridin-3-yl]-1-[4-(trifluoromethyl)phenyl]urea], the pEC50 is 4.00 to 5.30. Compound `CC(C)(C)OC(=O)N1CCN(c2ccc3[nH]cc(NC(=O)Nc4ccc(C(F)(F)F)cc4)c3n2)CC1` [Compound 128, tert-butyl 4-(3-(3-(4-(trifluoromethyl)phenyl)ureido)-1H-pyrrolo[3,2-b]pyridin-5-yl)piperazine-1-carboxylate] gave a pEC50 of 4.00 to 5.30.

`O=C(Nc1ccc(C(F)(F)F)cc1)Nc1c[nH]c2ccc(N3CCN(c4ccccc4)CC3)nc12` [Compound 129, 1-(5-(4-phenylpiperazin-1-yl)-1H-pyrrolo[3,2-b]pyridin-3-yl)-3-(4-(trifluoromethyl)phenyl)urea] showed a pEC50 of 6.00 to 6.70.
